As usually defined, the ΔTm is the change in melting temperature against a reference sample. Broadly, the EC50 is the concentration needed to bring the measured effect to its halfway point.

The first assay deals with T1, hSTING c-terminal domain (purified hSTING aa154-342) (Homo sapiens, UniProt Q86WV6).
T1 construct: Purified hSTING (aa154-342)
T1 sequence (Q86WV6 154-342): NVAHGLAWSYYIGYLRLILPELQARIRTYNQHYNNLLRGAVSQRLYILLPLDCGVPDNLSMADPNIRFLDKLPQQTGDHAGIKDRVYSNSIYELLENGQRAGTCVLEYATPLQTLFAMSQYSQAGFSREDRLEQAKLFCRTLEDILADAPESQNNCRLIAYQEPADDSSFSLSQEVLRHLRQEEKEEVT
Put plainly: Thermal shift assay for measuring the relative binding affinity to hSTING c-terminal domain. The settings on record: Tm of sample minus mean Tm of negative control (buffer, 2% DMSO), SYPRO Orange. The protocol:
Test Example 1. Thermal Shift Assay for Measuring the Relative Binding Affinity to hSTING c-Terminal Domain
From each of the 10 mM stock solutions of compounds in DMSO, dilutions are made to create samples with three concentrations 10 mM, 5 mM and 2.5 mM. From these dilutions a final 50 fold dilution is made into assay buffer, giving concentrations of 200 μM, 100 μM, and 50 μM. From each of the buffer dilutions, 5 μL is added to the 384 well assay plate. A positive control is setup with cGAMP using the same dilution scheme as the ligands. A baseline thermal shift for the negative control is determined using buffer and 2% DMSO.
An aliquot of protein is thawed on ice and SYPRO orange reagent is brought to room temperature. The 5000× SYPRO orange stock is diluted in assay buffer to a concentration of 10×. Protein is diluted to a concentration of 10 μM in the prepared buffer/dye solution. Five micro-liters of protein/buffer/dye solution is added to each of the sample and control wells, and the plate is sealed with the provided films. The plate is centrifuged for 5 min at 20° C. at 1000 rpm.
On the Light Cycler instrument, measurements are made over a temperature gradient from 20° C. to 99° C. at 0.07° C./s and data acquisitions collected at a rate of 8/° C. is used to measure the change in fluorescence as a function of temperature. Data analysis is performed using the Roche Light Cycler Software to determine the melting temperature (Tm ° C.) of each sample. A mean Tm ° C. for the negative control is calculated and subtracted from each of the samples to generate the ΔTm ° C. values for each of the ligands.
The relative binding affinity to hSTING c-terminal domain of the compounds of the present invention was determined by the above assay, and ΔTm ° C. values are shown in the following table 1.
As to `CCn1nc(C)cc1C(=O)Nc1nc2cc(C(N)=O)cc(OC)c2n1CCCCC1COc2cc(C(N)=O)cc3nc(NC(=O)c4cc(C)nn4CC)n1c23` (stereo in doubt) [Example 16, (S)-3-(4-(5-carbamoyl-2-(1-ethyl-3-methyl-1H-pyrazole-5-carboxamido)-7-methoxy-1H-benzo[d]imidazol-1-yl)butyl)-2-(1-ethyl-3-methyl-1H-pyrazole-5-carboxamido)-3,4-dihydro-5-oxa-1,2a-diazaacenaphthylene-7-carboxamide], the ΔTm at 100 µM came out at 1 °C.

For the molecule `CCn1nc(C)cc1C(=O)Nc1nc2cc(C(N)=O)cc3c2n1CCO3` [Example 2, 2-(1-ethyl-3-methyl-1H-pyrazole-5-carboxamido)-3,4-dihydro-5-oxa-1,2a-diazaacenaphthylene-7-carboxamide], the ΔTm at 100 µM is 1.1 °C.

For `CCn1nc(C)cc1C(=O)N(C)c1nc2cc(C(N)=O)cc3c2n1CCO3` [Example 3, 2-(1-ethyl-N,3-dimethyl-1H-pyrazole-5-carboxamido)-3,4-dihydro-5-oxa-1,2a-diazaacenaphthylene-7-carboxamide], the ΔTm at 100 µM amounted to 0.7 °C.

For the molecule `CCn1nc(C)cc1C(=O)Nc1nc2cc(C(N)=O)cc3c2n1[C@@H](CCCNC(=O)OCc1ccccc1)CO3` [Example 4, (S)-benzyl (3-(7-carbamoyl-2-(1-ethyl-3-methyl-1H-pyrazole-5-carboxamido)-3,4-dihydro-5-oxa-1,2a-diazaacenaphthylen-3-yl)propyl)carbamate], the ΔTm at 100 µM was 4.6 °C.

In the case of `C=CC[C@@H]1COc2cc(C(N)=O)cc3nc(NC(=O)c4cc(C)nn4CC)n1c23` [Example 6, (R)-3-allyl-2-(1-ethyl-3-methyl-1H-pyrazole-5-carboxamido)-3,4-dihydro-5-oxa-1,2a-diazaacenaphthylene-7-carboxamide], the ΔTm at 100 µM was -0.5 °C.

Turning to `CCC[C@H]1COc2cc(C(N)=O)cc3nc(NC(=O)c4cc(C)nn4CC)n1c23` [Example 7, (S)-2-(1-ethyl-3-methyl-1H-pyrazole-5-carboxamido)-3-propyl-3,4-dihydro-5-oxa-1,2a-diazaacenaphthylene-7-carboxamide], the ΔTm at 100 µM worked out at 5.4 °C.

As to `CCC=CC[C@H]1COc2cc(C(N)=O)cc3nc(NC(=O)c4cc(C)nn4CC)n1c23` [Example 8, (S)-2-(1-ethyl-3-methyl-1H-pyrazole-5-carboxamido)-3-(pent-2-en-1-yl)-3,4-dihydro-5-oxa-1,2a-diazaacenaphthylene-7-carboxamide], the ΔTm at 100 µM turned out to be 7.5 °C.

As to `CCn1nc(C)cc1C(=O)Nc1nc2cc(C(N)=O)cc3c2n1[C@@H](CC(O)CO)CO3` (stereo partly drawn) [Example 9, (3S)-3-(2,3-dihydroxypropyl)-2-(1-ethyl-3-methyl-1H-pyrazole-5-carboxamido)-3,4-dihydro-5-oxa-1,2a-diazaacenaphthylene-7-carboxamide], the ΔTm at 100 µM is -0.1 °C.

As for `CCn1nc(C)cc1C(=O)Nc1nc2cc(C(N)=O)cc(OC)c2n1CCCNCCC1COc2cc(C(N)=O)cc3nc(NC(=O)c4cc(C)nn4CC)n1c23` (centres unmarked) [Example 17, 3-(2-((3-(5-carbamoyl-2-(1-ethyl-3-methyl-1H-pyrazole-5-carboxamido)-7-methoxy-1H-benzo[d]imidazol-1-yl)propyl)amino)ethyl)-2-(1-ethyl-3-methyl-1H-pyrazole-5-carboxamido)-3,4-dihydro-5-oxa-1,2a-diazaacenaphthylene-7-carboxamide], the ΔTm at 100 µM was found to be 2 °C.

Regarding `CCn1nc(C)cc1C(=O)Nc1nc2cc(C(N)=O)cc(OCCO)c2n1CCC[C@H]1COc2cc(C(N)=O)cc3nc(NC(=O)c4cc(C)nn4CC)n1c23` [Example 20, (S)-3-(3-(5-carbamoyl-2-(1-ethyl-3-methyl-1H-pyrazole-5-carboxamido)-7-(2-hydroxyethoxy)-1H-benzo[d]imidazol-1-yl)propyl)-2-(1-ethyl-3-methyl-1H-pyrazole-5-carboxamido)-3,4-dihydro-5-oxa-1,2a-diazaacenaphthylene-7-carboxamide], the ΔTm at 100 µM amounted to 13 °C.

With `CCn1nc(C)cc1C(=O)Nc1nc2cc(C(N)=O)cc(OCCCOC)c2n1CCC[C@H]1COc2cc(C(N)=O)cc3nc(NC(=O)c4cc(C)nn4CC)n1c23` [Example 21, (S)-3-(3-(5-carbamoyl-2-(1-ethyl-3-methyl-1H-pyrazole-5-carboxamido)-7-(3-methoxypropoxy)-1H-benzo[d]imidazol-1-yl)propyl)-2-(1-ethyl-3-methyl-1H-pyrazole-5-carboxamido)-3,4-dihydro-5-oxa-1,2a-diazaacenaphthylene-7-carboxamide], the ΔTm at 100 µM is 13 °C.

Another assay deals with T2, STING in THP1-Dual KI-hSTING-R232 cells (Homo sapiens, UniProt Q86WV6, H232R).
T2 construct: host or cells: THP1-Dual KI-hSTING-R232 cells (human monocytic THP-1 reporter line)
T2 sequence (Q86WV6 whole entry H232R): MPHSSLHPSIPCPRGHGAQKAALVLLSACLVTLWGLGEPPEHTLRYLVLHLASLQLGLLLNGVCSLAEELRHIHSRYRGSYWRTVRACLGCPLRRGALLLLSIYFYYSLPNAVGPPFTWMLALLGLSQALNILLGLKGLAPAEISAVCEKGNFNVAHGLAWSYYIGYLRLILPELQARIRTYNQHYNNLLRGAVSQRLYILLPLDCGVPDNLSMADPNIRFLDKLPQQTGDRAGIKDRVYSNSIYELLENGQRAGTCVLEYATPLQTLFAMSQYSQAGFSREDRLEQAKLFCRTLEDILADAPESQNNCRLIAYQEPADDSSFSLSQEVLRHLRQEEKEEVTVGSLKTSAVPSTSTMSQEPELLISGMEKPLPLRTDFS
Put plainly: Human THP1 reporter cell assay (IRF luciferase reporter). The conditions noted are these: 24 hours incubation. The format is cell-based. The protocol: Test Example 2. Human THP1 Reporter Cell Assay
• 1. Human THP1-Dual KI-hSTING-R232 Cells (InvivoGen, Cat. #thpd-r232) • 2. QUANTI-LUC (InvivoGen, Cat. #rep-qlc2) • 3. Media for cell culture and compound dilution: RPMI with high glucose and glutamine (Genesee, Cat. #25-506), 10% fetal bovine serum (Life Technologies, Cat. #10082147), 25 mM HEPES (Genesee, Cat. #25-534), 100 μg/ml Normocin (InvivoGen, Cat. #ant-nr-2), 10 μg/ml blasticidin (InvivoGen, Cat. #ant-bl-05), 100 μg/ml Zeocin (InvivoGen, Cat. #ant-zn-5p) and Penicillin-Streptomycin (100×) (Life Technologies, Cat. #15140122) • 4. Infinite M1000 plate reader (TECAN) Experimental Procedure
Activation of STING in THP1-Dual KI-hSTING-R232 cells was determined by measuring the luminescence signal resulting from the expression of the IRF luciferase reporter gene. All reagent preparation and assay procedures were conducted according to the protocols provided by InvivoGen. In brief, test compounds and cells (1×10^5 cells per well) were dispensed into 96-well plates with a final volume per well of 150 μl. Plates were incubated in a humidified, 5% CO2 incubator at 37° C. for 24 hours. The expression level of the reporter gene was measured by transferring 20 μl of the supernatant to a non-transparent 96-well plate to which 50 μl of QUANTI-LUC was dispensed into each well. The resulting luminescence signal was immediately read using a TECAN plate reader. The background luminescence signal from media was subtracted. The fold induction effect of the luminescence signal at each compound concentration was determined relative to controls that lack compound treatment. The plot of fold induction effect versus the log of compound concentration was fit in GraphPad Prism with a 4-parameter concentration response equation to calculate EC50 and Emax.
Activation of STING in THP1 of the compounds in the present invention was determined by the above assay, and EC50 values are shown in the following table 2.
In turn, `C/C=C/C[C@@H]1COc2cc(C(N)=O)cc3nc(NC(=O)c4cc(C)nn4CC)n1c23` [Example 5-1, (R,E)-3-(but-2-en-1-yl)-2-(1-ethyl-3-methyl-1H-pyrazole-5-carboxamido)-3,4-dihydro-5-oxa-1,2a-diazaacenaphthylene-7-carboxamide] showed an EC50 of more than 20000 nM.

In turn, `CCC=CC[C@H]1COc2cc(C(N)=O)cc3nc(NC(=O)c4cc(C)nn4CC)n1c23` [Example 8, (S)-2-(1-ethyl-3-methyl-1H-pyrazole-5-carboxamido)-3-(pent-2-en-1-yl)-3,4-dihydro-5-oxa-1,2a-diazaacenaphthylene-7-carboxamide] had a concentration giving a half-maximal response (EC50) of 2600 nM.

For the molecule `CCn1nc(C)cc1C(=O)Nc1nc2cc(C(N)=O)cc(OCCO)c2n1CCC[C@H]1COc2cc(C(N)=O)cc3nc(NC(=O)c4cc(C)nn4CC)n1c23` [Example 20, (S)-3-(3-(5-carbamoyl-2-(1-ethyl-3-methyl-1H-pyrazole-5-carboxamido)-7-(2-hydroxyethoxy)-1H-benzo[d]imidazol-1-yl)propyl)-2-(1-ethyl-3-methyl-1H-pyrazole-5-carboxamido)-3,4-dihydro-5-oxa-1,2a-diazaacenaphthylene-7-carboxamide], a half-maximal response (EC50) required 100 nM.

As to `CCn1nc(C)cc1C(=O)Nc1nc2cc(C(N)=O)cc(OCCCOC)c2n1CCC[C@H]1COc2cc(C(N)=O)cc3nc(NC(=O)c4cc(C)nn4CC)n1c23` [Example 21, (S)-3-(3-(5-carbamoyl-2-(1-ethyl-3-methyl-1H-pyrazole-5-carboxamido)-7-(3-methoxypropoxy)-1H-benzo[d]imidazol-1-yl)propyl)-2-(1-ethyl-3-methyl-1H-pyrazole-5-carboxamido)-3,4-dihydro-5-oxa-1,2a-diazaacenaphthylene-7-carboxamide], the midpoint of the response, the EC50, lay at 60 nM.

`C=CCC1CCCOc2cc(C(N)=O)cc3nc(NC(=O)c4cc(C)nn4CC)n1c23` (centres unmarked) [Example 27, 10-allyl-1-(1-ethyl-3-methyl-1H-pyrazole-5-carboxamido)-7,8,9,10-tetrahydro-6-oxa-2,10a-diazacycloocta[cd]indene-4-carboxamide]: the EC50 is more than 20000 nM.

`CCn1nc(C)cc1C(=O)Nc1nc2cc(C(N)=O)cc3c2n1[C@@H](C/C=C/CC(CC(=O)c1cc2cc(OC)c(OC)cc2s1)C(=O)O)CO3` (stereo partly drawn) [Example 28, (E)-6-((S)-7-carbamoyl-2-(1-ethyl-3-methyl-1H-pyrazole-5-carboxamido)-3,4-dihydro-5-oxa-1,2a-diazaacenaphthylen-3-yl)-2-(2-(5,6-dimethoxybenzo[b]thiophen-2-yl)-2-oxoethyl)hex-4-enoic acid] displayed an EC50 of more than 20000 nM.

The molecule `C=CC[C@H]1CNc2cc(C(N)=O)cc3nc(NC(=O)c4cc(C)nn4CC)n1c23` [Example 29, (S)-4-allyl-2-(1-ethyl-3-methyl-1H-pyrazole-5-carboxamido)-5,6-dihydro-4H-imidazo[1,5,4-de]quinoxaline-8-carboxamide] returned an EC50 of 12000 nM.

`C=CC[C@H]1CN(CCCOC)c2cc(C(N)=O)cc3nc(NC(=O)c4cc(C)nn4CC)n1c23` [Example 30, (S)-4-allyl-2-(1-ethyl-3-methyl-1H-pyrazole-5-carboxamido)-6-(3-methoxypropyl)-5,6-dihydro-4H-imidazo[1,5,4-de]quinoxaline-8-carboxamide] yielded an EC50 of 1500 nM.

Consider `C=CC[C@H]1CN(C)c2cc(C(N)=O)cc3nc(NC(=O)c4cc(C)nn4CC)n1c23` [Example 31, (S)-4-allyl-2-(1-ethyl-3-methyl-1H-pyrazole-5-carboxamido)-6-methyl-5,6-dihydro-4H-imidazo[1,5,4-de]quinoxaline-8-carboxamide], for which the response was half-maximal at 2400 nM (EC50).

For the origin of these results see US11535633B2, “Fused tricyclic heterocycle compounds and therapeutic uses thereof” (Jiangsu Hengrui Medicine Co., Ltd., priority 2018, dated 2022).
